Patent publication US8337835B2, “Use of an endogenous ligand for peroxisome proliferator activated receptor alpha to treat liver disorders” (priority 2009, dated 2012)

Molecular target: T1, ΔDBD-PPARα (Mus musculus, UniProt P23204, C119A/C122A)
T1 construct: expressed in transfected cells; host or cells: liver of chow-fed WT mice on a PPARα null background, infected with AdFLAG-ΔDBD PPARα adenovirus
T1 sequence (P23204 1-468 C119A/C122A): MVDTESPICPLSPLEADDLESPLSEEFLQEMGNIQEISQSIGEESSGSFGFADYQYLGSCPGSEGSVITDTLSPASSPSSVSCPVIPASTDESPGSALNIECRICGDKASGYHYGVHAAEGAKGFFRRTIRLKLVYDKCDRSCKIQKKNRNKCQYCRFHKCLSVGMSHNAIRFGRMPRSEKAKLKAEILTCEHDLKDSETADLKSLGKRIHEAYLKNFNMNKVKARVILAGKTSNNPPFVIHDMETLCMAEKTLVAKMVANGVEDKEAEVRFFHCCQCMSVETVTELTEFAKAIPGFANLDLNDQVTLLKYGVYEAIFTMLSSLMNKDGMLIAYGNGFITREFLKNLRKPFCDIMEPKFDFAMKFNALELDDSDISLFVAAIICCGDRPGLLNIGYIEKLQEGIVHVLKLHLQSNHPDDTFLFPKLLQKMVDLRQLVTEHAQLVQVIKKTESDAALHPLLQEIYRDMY
Assay: In vivo competitive inhibition with PPARα having a defective DNA binding domain
Conditions: 50 μg/g intraperitoneal; chow fed WT mice on PPARα null background with AdFLAG-ΔDBD PPARα; 0-60 min
Excerpt: Adenovirus encoding both FLAG®-tagged wild type mouse PPARα and a GFP marker, and an adenovirus encoding GFP alone were gifts from T. C. Leone and D. P. Kelly. The AdPPARα virus is known to result in expression of a protein that transactivates PPARα target genes (Bernal-Mizrachi et al., 2003; Tordjman et al., 2002). The DNA binding domain (DBD) mutant of PPARα was generated by mutating the two highly conserved cysteine residues (Shi et al., 2002) to alanine (C119A, C122A) using site-directed mutagenesis (QuikChange® kit, Stratagene). The DBD mutant was subcloned into the pCMV-TAG1 vector (Stratagene) to acquire a FLAG® tag, then shuttled into pAdTrack-CMV vector encoding a GFP marker and recombined with Ad-Easy1 vector. The pAdTrack-CMV and pAdEasy-1 vectors were gifts from the laboratory of B. Vogelstein. […]
To address the concern that lipid loss could represent Wy14,643-accelerated metabolism as opposed to displacement of the ligand, 1-palmitoyl-2-oleoyl-sn-glycerol-3-phosphocholine (16:0/18:1-GPC) from its binding site on PPARα, an in vivo competitive inhibition experiment using a PPARα molecule with a defective DNA binding domain (see FIG. 5A) was employed. […] Quantification of the relative abundance of the m/z 766 ion in response to Wy14,643 administration in WT mice on a PPARα null background injected with AdFLAG-^ΔDBD PPARα adenovirus is shown in FIG. 5M. […]

## Cc1cccc(Nc2cc(Cl)nc(SCC(=O)O)n2)c1C [Wy14,643, 4-Chloro-6-(2,3-xylidino)-2-pyrimidinylthioacetic acid]
  displacement of m/z 766 (16:0/18:1-GPC) from ΔDBD-PPARα: competed away from ΔDBD-PPARα within minutes
